{
  "source": "patent US8959984B2",
  "about": "“Proteome-wide quantification of small molecule binding to cellular target proteins” (priority 2007, dated 2015)",
  "key": {"CaMK2d (CAMK2D)": {"target": "CaMK2d (CAMK2D) (Homo sapiens, UniProt Q13557)", "sequence (Q13557 whole entry)": "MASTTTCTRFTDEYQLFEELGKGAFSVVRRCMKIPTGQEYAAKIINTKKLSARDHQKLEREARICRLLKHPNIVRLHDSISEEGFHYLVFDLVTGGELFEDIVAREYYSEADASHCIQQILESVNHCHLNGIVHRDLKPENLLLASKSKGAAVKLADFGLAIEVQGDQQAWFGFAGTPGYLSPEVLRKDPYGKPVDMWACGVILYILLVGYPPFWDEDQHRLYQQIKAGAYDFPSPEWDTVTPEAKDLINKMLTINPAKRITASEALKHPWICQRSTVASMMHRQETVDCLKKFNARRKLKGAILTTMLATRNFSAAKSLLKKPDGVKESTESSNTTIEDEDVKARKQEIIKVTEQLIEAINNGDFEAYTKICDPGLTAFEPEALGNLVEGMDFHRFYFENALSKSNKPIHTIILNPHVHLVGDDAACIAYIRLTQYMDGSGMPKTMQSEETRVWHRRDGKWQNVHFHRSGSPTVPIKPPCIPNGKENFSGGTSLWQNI"}, "SNRPE": {"target": "SNRPE (Homo sapiens, UniProt P62304)", "sequence (P62304 whole entry)": "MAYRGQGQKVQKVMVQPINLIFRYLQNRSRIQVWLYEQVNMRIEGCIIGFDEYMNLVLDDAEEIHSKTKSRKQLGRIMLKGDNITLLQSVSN"}, "MAP3K5": {"target": "T1, MAP3K5 (Homo sapiens, UniProt Q99683)", "T1 construct": "endogenous in cells; host or cells: HeLa S3", "T1 sequence (Q99683 1-1374)": "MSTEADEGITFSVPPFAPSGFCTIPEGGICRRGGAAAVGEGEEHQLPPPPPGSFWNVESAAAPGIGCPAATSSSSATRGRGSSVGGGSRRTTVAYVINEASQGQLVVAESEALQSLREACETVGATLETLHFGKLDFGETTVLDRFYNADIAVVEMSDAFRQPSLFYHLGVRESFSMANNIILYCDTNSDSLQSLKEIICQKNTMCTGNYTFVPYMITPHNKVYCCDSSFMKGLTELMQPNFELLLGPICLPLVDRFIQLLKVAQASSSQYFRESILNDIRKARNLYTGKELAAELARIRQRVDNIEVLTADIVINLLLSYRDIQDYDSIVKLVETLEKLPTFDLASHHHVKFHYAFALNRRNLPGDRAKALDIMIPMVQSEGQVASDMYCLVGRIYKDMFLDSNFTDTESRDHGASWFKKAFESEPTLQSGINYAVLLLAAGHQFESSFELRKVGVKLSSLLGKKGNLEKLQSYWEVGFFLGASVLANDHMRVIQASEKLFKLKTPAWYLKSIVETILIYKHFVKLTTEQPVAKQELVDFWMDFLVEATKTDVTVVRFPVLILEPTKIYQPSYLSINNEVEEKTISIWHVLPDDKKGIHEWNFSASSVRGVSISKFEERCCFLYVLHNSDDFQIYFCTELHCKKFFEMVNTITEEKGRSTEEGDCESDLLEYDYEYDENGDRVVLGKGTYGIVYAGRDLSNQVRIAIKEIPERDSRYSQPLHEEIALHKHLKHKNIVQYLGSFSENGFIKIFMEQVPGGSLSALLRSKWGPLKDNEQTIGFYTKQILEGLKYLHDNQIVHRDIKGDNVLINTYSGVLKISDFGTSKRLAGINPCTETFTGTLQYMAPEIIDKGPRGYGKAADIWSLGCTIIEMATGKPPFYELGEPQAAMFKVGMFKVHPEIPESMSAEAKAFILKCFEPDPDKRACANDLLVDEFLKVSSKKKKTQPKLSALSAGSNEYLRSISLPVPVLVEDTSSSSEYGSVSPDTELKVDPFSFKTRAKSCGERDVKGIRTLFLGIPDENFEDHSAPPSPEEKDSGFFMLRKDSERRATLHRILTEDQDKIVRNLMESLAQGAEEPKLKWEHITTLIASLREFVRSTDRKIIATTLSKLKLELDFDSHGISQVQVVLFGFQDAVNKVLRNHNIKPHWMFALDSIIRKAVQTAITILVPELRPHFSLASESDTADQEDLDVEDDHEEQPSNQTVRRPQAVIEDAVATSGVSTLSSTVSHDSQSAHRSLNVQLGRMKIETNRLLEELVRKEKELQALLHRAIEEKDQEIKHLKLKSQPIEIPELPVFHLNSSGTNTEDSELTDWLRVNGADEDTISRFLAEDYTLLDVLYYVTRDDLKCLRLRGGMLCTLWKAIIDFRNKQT", "experiment": "binding to immobilized V16742 (IVA1/IVA2, HeLa lysate, MS)"}, "ADK (IPI00290279)": {"target": "T2, ADK (IPI00290279) (Homo sapiens, UniProt P55263)", "T2 construct": "endogenous in cells; host or cells: HeLa S3 cell lysate", "T2 sequence (P55263 whole entry)": "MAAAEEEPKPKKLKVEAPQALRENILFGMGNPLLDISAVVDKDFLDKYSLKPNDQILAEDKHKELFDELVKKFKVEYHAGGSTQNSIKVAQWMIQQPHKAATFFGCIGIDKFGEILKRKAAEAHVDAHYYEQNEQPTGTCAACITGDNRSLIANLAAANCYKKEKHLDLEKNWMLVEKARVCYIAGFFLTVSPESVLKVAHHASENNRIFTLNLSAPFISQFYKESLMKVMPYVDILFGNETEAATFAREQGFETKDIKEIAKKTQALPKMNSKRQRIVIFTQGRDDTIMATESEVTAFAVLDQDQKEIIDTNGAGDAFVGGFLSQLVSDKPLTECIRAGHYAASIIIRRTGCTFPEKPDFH", "experiment": "binding to VI16742 beads (HeLa lysate, SILAC MS)"}},
  "note": "pKd, pKi: −log10 of the molar value. Where two headings read alike, the source gives them in different places.",
  "data": [
    {"smiles": "COc1cc2ncnc(Nc3ccc(F)c(Cl)c3)c2cc1OCCCN1CCOCC1", "note": "[gefitinib]", "values": [
      {"measurement": "rAVERAGE (10 nM/0 nM Gef.)", "setting": "CaMK2d (CAMK2D)", "value": 0.89},
      {"measurement": "rAVERAGE (100 nM/0 nM Gef.)", "setting": "CaMK2d (CAMK2D)", "value": 1.11},
      {"measurement": "rAVERAGE (1000 nM/0 nM Gef.)", "setting": "CaMK2d (CAMK2D)", "value": 0.91},
      {"measurement": "rAVERAGE (10000 nM/0 nM Gef.)", "setting": "CaMK2d (CAMK2D)", "value": 0.93},
      {"measurement": "rAVERAGE (10 nM/0 nM Gef.)", "setting": "SNRPE", "value": 0.70},
      {"measurement": "rAVERAGE (100 nM/0 nM Gef.)", "setting": "SNRPE", "value": 1.11},
      {"measurement": "rAVERAGE (1000 nM/0 nM Gef.)", "setting": "SNRPE", "value": 0.74},
      {"measurement": "rAVERAGE (10000 nM/0 nM Gef.)", "setting": "SNRPE", "value": 0.93}
    ]},
    {"smiles": "CC(C)n1c(=O)ccc2cnc(Nc3ccc(OCCN)cc3)nc21", "note": "[V16742]", "values": [
      {"measurement": "Percent bound at various 16742 conc", "setting": "MAP3K5; Experiment 1, 1.87 μM 16742", "value": 7.42, "unit": "%"},
      {"measurement": "Percent bound at various 16742 conc", "setting": "MAP3K5; Experiment 1, 8.74 μM 16742", "value": 10.05, "unit": "%"},
      {"measurement": "Percent bound at various 16742 conc", "setting": "MAP3K5; Experiment 1, 52 μM 16742", "value": 56.90, "unit": "%"},
      {"measurement": "pKd", "setting": "MAP3K5; Experiment 1, read-out: Kd", "value": 4.35},
      {"measurement": "Percent bound at various 16742 conc", "setting": "MAP3K5; Experiment 2, 1.87 μM 16742", "value": 1.27, "unit": "%"},
      {"measurement": "Percent bound at various 16742 conc", "setting": "MAP3K5; Experiment 2, 8.74 μM 16742", "value": 1.00, "unit": "%"},
      {"measurement": "Percent bound at various 16742 conc", "setting": "MAP3K5; Experiment 2, 52 μM 16742", "value": 17.64, "unit": "%"},
      {"measurement": "pKd", "setting": "MAP3K5; Experiment 2, read-out: Kd", "value": 3.60},
      {"measurement": "pKd", "setting": "MAP3K5; average of two experiments, read-out: Kd Avg", "value": 3.83},
      {"measurement": "r (5 h/2.5 h INC. TIME)", "setting": "ADK (IPI00290279); 5 h vs 2.5 h incubation time", "value": 1.63},
      {"measurement": "rAVERAGE (CTRL/1 INC)", "setting": "ADK (IPI00290279); control beads vs first incubation", "value": 0.05},
      {"measurement": "pKi", "setting": "ADK (IPI00290279); immobilized VI16742", "value": 4.03},
      {"measurement": "rAVERAGE (2 INC/1 INC)", "setting": "ADK (IPI00290279); second vs first incubation", "value": 0.64}
    ]}
  ]
}
